Reference: patent US10647719B2, “Bicyclic compounds as dual ATX/CA inhibitors” (Hoffmann-La Roche Inc., priority 2015, dated 2020)
Where two headings read alike, the source gives them in different places.

Columns and labels:
human ATX = human ATX (Homo sapiens (Human), UniProt Q13822); test: Human ATX enzyme inhibition assay (fluorescence quenching, MR121 substrate); assay type: biochemical
Method: Human ATX Enzyme Inhibition Assay
ATX inhibition was measured by a fluorescence quenching assay using a specifically labeled substrate analogue (MR121 substrate). To obtain this MR121 substrate, BOC and TBS protected 6-amino-hexanoic acid (R)-3-({2-[3-(2-{2-[2-(2-amino-ethoxy)-ethoxy]-ethoxy}-ethoxy)-propionylamino]-ethoxy}-hydroxy-phosphoryloxy)-2-hydroxy-propyl ester (Ferguson et al., Org Lett 2006, 8 (10), 2023) was labeled with MR121 fluorophore (CAS 185308-24-1, 1-(3-carboxypropyl)-11-ethyl-1,2,3,4,8,9,10,11-octahydro-dipyrido[3,2-b:2′,3′-i]phenoxazin-13-ium) on the free amine of the ethanolamine side and then, after deprotection, subsequently with tryptophan on the side of the aminohexanoic acid.
(§1) Assay working solutions were made as follows:
Assay buffer (50 mM Tris-HCl, 140 mM NaCl, 5 mM KCl, 1 mM CaCl2, 1 mM MgCl2, 0.01% Triton-X-100, pH 8.0;
ATX solution: ATX (human His-tagged) stock solution (1.08 mg/mL in 20 mM bicine, pH 8.5, 0.15 M NaCl, 10% glycerol, 0.3% CHAPS, 0.02% NaN3), diluted to 1.4-2.5× final concentration in assay buffer;
MR121 substrate solution: MR121 substrate stock solution (800 μM MR121 substrate in DMSO), diluted to 2-5× final concentration in assay buffer.
Test compounds (10 mM stock in DMSO, 8 μL) were obtained in 384 well sample plates (Corning Costar #3655) and diluted with 8 μL DMSO. Row-wise serial dilutions were made by transferring 8 μL cpd solution to the next row up to row O. The compound and control solutions were mixed five times and 2 μL were transferred to 384 well assay plates (Corning Costar #3702). Then, 15 μL of 41.7 nM ATX solution was added (30 nM final concentration), mixed five times and then incubated for 15 minutes at 30° C. 10 μL of MR121 substrate solution was added (1 μM final concentration), mixed 30 times and then incubated for 15 minutes at 30° C.

[1] = target: Human carbonic anhydrase II (hCA-II) (Homo sapiens (Human), UniProt P00918); test: Human carbonic anhydrase-II inhibition assay (absorbance, 4-nitrophenyl acetate substrate); assay type: biochemical
Method: Human Carbonic Anhydrase-II Inhibition Assay
Human carbonic anhydrase II (hCA-II) inhibition was measured by an absorbance method using 4-nitrophenyl acetate (4-NPA) as its substrate. 4-NPA can be catalyzed by active hCA II via a zinc-hydroxide mechanism. The nitrophenolate in the products can be ionized to generate a bright yellow anion with high absorbance at 348 to 400 nm, as reported in the literature (Armstrong et al., J. Biol. Chem. 1966, 241, 5137-5149). OD340 nm was chosen for detecting hCA II substrate conversion.
as §1
Assay buffer: 50 mM MOPS, 33 mM Na2SO4, 1 mM EDTA, 0.5 mg/ml BSA, pH 7.5;
Enzyme solution: hCA-II (human, full length) stock solution (1.0 mg/mL in 20 mM HEPES, 50 mM NaCl, pH 7.4), diluted to 2133× final concentration in assay buffer;
4-NPA substrate solution: 4-NPA substrate stock solution (250 mM in DMSO, stored at −20° C.), diluted to 50× final concentration in deionized water.
Test compounds (10 mM stock in DMSO, 100 μL) were obtained in […] sample plates (Corning Costar #3655) and diluted to 0.5 mM. Column-wise serial dilutions were made by transferring 20 μL compound solutions to the next column, from column 3 up to 22. After this, 1.2 μL were transferred to 384 well assay plates (Corning Costar #3701). Then 30 μL of 16 nM hCA II solution was added (8 nM final concentration), mixed five times. 30 μL of 4-NPA substrate solution was added (2.5 mM final concentration), mixed five times. Absorbance at 340 nm was then measured immediately as time zero. The assay plates were incubated at room temperature for 1 hour and then measured as time 1 hour (Perkin Elmer EnVision 2103; Filter: Photometric 340; Light intensity 60%; Number of flashes: 10). IC50 values and Ki values were calculated from these readouts.

[2] = human His-tagged ATX 30 nM, MR121 substrate 1 μM, 30° C., read-out: ATX IC50
[3] = hCA II 8 nM, 4-NPA 2.5 mM, absorbance 340 nm, room temperature 1 hour, read-out: CA-II IC50

Row | IC50 (human ATX; [2]) [nM] | IC50 [1, 3] [nM] | IC50 (human ATX) [nM] | IC50 [1] [nM] | Compound
1 | 2 | 20.6 | – | – | CC(C)(C)C(=O)Nc1cc(Cl)cnc1COC(=O)N1CC2=C(C1)CN(C(=O)c1ccc(S(N)(=O)=O)c(F)c1)C2 [Example 1.13, [5-chloro-3-(2,2-dimethylpropanoylamino)pyridin-2-yl]methyl 2-(3-fluoro-4-sulfamoylbenzoyl)-1,3,4,6-tetrahydropyrrolo[3,4-c]pyrrole-5-carboxylate]
2 | 15 | 16.6 | – | – | CC(C)(C)C(=O)Nc1cc(Cl)cnc1COC(=O)N1CC2=C(C1)CN(C(=O)c1ccc(S(N)(=O)=O)c(F)c1F)C2 [Example 1.14, [5-chloro-3-(2,2-dimethylpropanoylamino)pyridin-2-yl]methyl 2-(2,3-difluoro-4-sulfamoylbenzoyl)-1,3,4,6-tetrahydropyrrolo[3,4-c]pyrrole-5-carboxylate]
3 | 8 | 12.9 | – | – | CC(C)(C)C(=O)Nc1cc(Cl)cnc1COC(=O)N1CC2=C(C1)CN(C(=O)c1c(F)cc(S(N)(=O)=O)cc1F)C2 [Example 1.15, [5-chloro-3-(2,2-dimethylpropanoylamino)pyridin-2-yl]methyl 2-(2,6-difluoro-4-sulfamoylbenzoyl)-1,3,4,6-tetrahydropyrrolo[3,4-c]pyrrole-5-carboxylate]
4 | 9 | 10.2 | – | – | CC(C)(C)C(=O)Nc1cc(Cl)cnc1COC(=O)N1CC2=C(C1)CN(C(=O)c1cc(F)c(S(N)(=O)=O)cc1F)C2 [Example 1.16, [5-chloro-3-(2,2-dimethylpropanoylamino)pyridin-2-yl]methyl 2-(2,5-difluoro-4-sulfamoylbenzoyl)-1,3,4,6-tetrahydropyrrolo[3,4-c]pyrrole-5-carboxylate]
5 | 11 | 4 | – | – | Cc1ccc(NC(=O)C(C)(C)C)c(COC(=O)N2CC3=C(C2)CN(C(=O)c2ccc(S(N)(=O)=O)cc2F)C3)n1 [Example 1.17, [3-(2,2-dimethylpropanoylamino)-6-methylpyridin-2-yl]methyl 2-(2-fluoro-4-sulfamoylbenzoyl)-1,3,4,6-tetrahydropyrrolo[3,4-c]pyrrole-5-carboxylate]
6 | 2 | 1 | – | – | CC(C)(C)C(=O)Nc1ccc(Cl)nc1COC(=O)N1CC2=C(C1)CN(C(=O)c1ccc(S(N)(=O)=O)cc1F)C2 [Example 1.18, [6-chloro-3-(2,2-dimethylpropanoylamino)pyridin-2-yl]methyl 2-(2-fluoro-4-sulfamoylbenzoyl)-1,3,4,6-tetrahydropyrrolo[3,4-c]pyrrole-5-carboxylate]
7 | 10 | 4 | – | – | CC(C)(C)C(=O)Nc1cccnc1COC(=O)N1CC2=C(C1)CN(C(=O)c1ccc(S(N)(=O)=O)cc1F)C2 [Example 1.19, [3-(2,2-dimethylpropanoylamino)pyridin-2-yl]methyl 2-(2-fluoro-4-sulfamoylbenzoyl)-1,3,4,6-tetrahydropyrrolo[3,4-c]pyrrole-5-carboxylate]
8 | 15 | 2 | – | – | CC(C)(C)C(=O)Nc1ccc(Cl)nc1COC(=O)N1CC2=C(C1)CN(C(=O)c1cc(F)c(S(N)(=O)=O)cc1F)C2 [Example 1.20, [6-chloro-3-(2,2-dimethylpropanoylamino)pyridin-2-yl]methyl 2-(2,5-difluoro-4-sulfamoylbenzoyl)-1,3,4,6-tetrahydropyrrolo[3,4-c]pyrrole-5-carboxylate]
9 | 12 | 3 | – | – | CC(C)(C)C(=O)Nc1ccc(Cl)nc1COC(=O)N1CC2=C(C1)CN(C(=O)c1ccc(S(N)(=O)=O)c(F)c1)C2 [Example 1.21, [6-chloro-3-(2,2-dimethylpropanoylamino)pyridin-2-yl]methyl 2-(3-fluoro-4-sulfamoylbenzoyl)-1,3,4,6-tetrahydropyrrolo[3,4-c]pyrrole-5-carboxylate]
10 | 6 | 2 | – | – | CC(C)(C)C(=O)Nc1ccc(Cl)nc1COC(=O)N1CC2=C(C1)CN(C(=O)c1ccc(S(N)(=O)=O)c(F)c1F)C2 [Example 1.22, [6-chloro-3-(2,2-dimethylpropanoylamino)pyridin-2-yl]methyl 2-(2,3-difluoro-4-sulfamoylbenzoyl)-1,3,4,6-tetrahydropyrrolo[3,4-c]pyrrole-5-carboxylate]
11 | 10 | 1 | – | – | CC(C)(C)C(=O)Nc1ccc(Cl)nc1COC(=O)N1CC2=C(C1)CN(C(=O)c1c(F)cc(S(N)(=O)=O)cc1F)C2 [Example 1.23, [6-chloro-3-(2,2-dimethylpropanoylamino)pyridin-2-yl]methyl 2-(2,6-difluoro-4-sulfamoylbenzoyl)-1,3,4,6-tetrahydropyrrolo[3,4-c]pyrrole-5-carboxylate]
12 | 8 | 18 | – | – | CC(C)(C)C(=O)Nc1cc(C#N)cnc1COC(=O)N1CC2=C(C1)CN(C(=O)c1cc(F)c(S(N)(=O)=O)cc1F)C2 [Example 1.27, [5-cyano-3-(2,2-dimethylpropanoylamino)pyridin-2-yl]methyl 2-(2,5-difluoro-4-sulfamoylbenzoyl)-1,3,4,6-tetrahydropyrrolo[3,4-c]pyrrole-5-carboxylate]
13 | – | – | 11 | 1.2 | CC(C)(C)C(=O)Nc1cc(Cl)c(Cl)nc1COC(=O)N1CC2=C(C1)CN(C(=O)c1ccc(S(N)(=O)=O)cc1F)C2 [Example 1.29, [5,6-dichloro-3-(2,2-dimethylpropanoylamino)pyridin-2-yl]methyl 2-(2-fluoro-4-sulfamoylbenzoyl)-1,3,4,6-tetrahydropyrrolo[3,4-c]pyrrole-5-carboxylate]
14 | – | – | 10 | 4.2 | CC(C)(C)C(=O)Nc1cc(Cl)c(Cl)nc1COC(=O)N1CC2=C(C1)CN(C(=O)c1ccc(S(N)(=O)=O)c(F)c1F)C2 [Example 1.30, [5,6-dichloro-3-(2,2-dimethylpropanoylamino)pyridin-2-yl]methyl 2-(2,3-difluoro-4-sulfamoylbenzoyl)-1,3,4,6-tetrahydropyrrolo[3,4-c]pyrrole-5-carboxylate]
15 | – | – | 10 | 11.5 | CC(C)(C)C(=O)Nc1cc(Cl)c(Cl)nc1COC(=O)N1CC2=C(C1)CN(C(=O)c1c(F)cc(S(N)(=O)=O)cc1F)C2 [Example 1.31, [5,6-dichloro-3-(2,2-dimethylpropanoylamino)pyridin-2-yl]methyl 2-(2,6-difluoro-4-sulfamoylbenzoyl)-1,3,4,6-tetrahydropyrrolo[3,4-c]pyrrole-5-carboxylate]
16 | – | – | 5 | 2.5 | CC(C)(C)C(=O)Nc1cc(C(F)(F)F)cnc1COC(=O)N1CC2=C(C1)CN(C(=O)c1ncc(S(N)(=O)=O)cc1F)C2 [Example 1.32, [3-(2,2-dimethylpropanoylamino)-5-(trifluoromethyl)pyridin-2-yl]methyl 2-(3-fluoro-5-sulfamoylpyridine-2-carbonyl)-1,3,4,6-tetrahydropyrrolo[3,4-c]pyrrole-5-carboxylate]
17 | – | – | 1 | 2.3 | NS(=O)(=O)c1ccc(C(=O)N2CC3=C(CN(C(=O)c4cc(OCC5CCOCC5)nc(C5CC5)c4)C3)C2)c(F)c1F [Example 1.33, 4-[5-[2-cyclopropyl-6-(oxan-4-ylmethoxy)pyridine-4-carbonyl]-1,3,4,6-tetrahydropyrrolo[3,4-c]pyrrole-2-carbonyl]-2,3-difluorobenzenesulfonamide]
